Experimental findings from patent US20100076015A1, “Aminopyridine Derivatives” (VANTIA LIMITED, priority 2008, published 2010) are described below.

pIC50: −log10 of the molar value.

What all share (type): biochemical
One test concerns the target T1, Human KLK1 (Homo sapiens, UniProt P06870).
T1 construct: purchased Callbiochem (Calbiochem)
The experiment in a line: Determination of the IC50 for KLK1 (fluorogenic substrate H-DVal-Leu-Arg-AFC). The conditions noted are these: 37° C. In short, it runs like this: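 Test compound at various concentrations was incubated with human KLK1 and the fluorogenic substrate H-DVal-Leu-Arg-AFC at 37° C. Absorbance change at 410 nm gave the initial reaction rate, from which IC50 was obtained.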

The target of a further test is plasmin (Homo sapiens, UniProt P00747). The experiment in a line: Enzyme selectivity: plasmin (chromogenic substrate S-2390). The conditions noted are these: chromogenic substrate S-2390, 37° C. On the procedure:
(§1) Determination of Enzyme Selectivity
(§2) Selected compounds were further screened for inhibitory activity against other trypsin-like serine proteases using the appropriate enzyme and chromogenic substrate (Chromogenix AB). The activity against the following human enzymes was tested (substrate in brackets):—plasma kallikrein (S-2302), thrombin (S-2238), plasmin (S-2390) and trypsin (S-2222). The enzyme was incubated at 37° C. with the chromogenic substrate. Residual enzyme activity (initial rate of reaction) was determined by measuring the change in optical absorbance at 405 nm.

Another test deals with trypsin. The experiment in a line: Enzyme selectivity: trypsin (chromogenic substrate S-2222). The conditions noted are these: human enzyme, chromogenic substrate S-2222, 37° C. On the procedure: as §1, §2
The target of a further test is thrombin (Homo sapiens, UniProt P00734). The experiment in a line: Enzyme selectivity: thrombin (chromogenic substrate S-2238). The conditions noted are these: chromogenic substrate S-2238, 37° C. The method, then: as §1, §2
The target in the next test is plasma kallikrein (Homo sapiens, UniProt P03952). The experiment in a line: Enzyme selectivity: plasma kallikrein (chromogenic substrate S-2302). The conditions noted are these: chromogenic substrate S-2302, 37° C. The method, then: as §1, §2
Chain of plasma kallikrein (P03952 20-638): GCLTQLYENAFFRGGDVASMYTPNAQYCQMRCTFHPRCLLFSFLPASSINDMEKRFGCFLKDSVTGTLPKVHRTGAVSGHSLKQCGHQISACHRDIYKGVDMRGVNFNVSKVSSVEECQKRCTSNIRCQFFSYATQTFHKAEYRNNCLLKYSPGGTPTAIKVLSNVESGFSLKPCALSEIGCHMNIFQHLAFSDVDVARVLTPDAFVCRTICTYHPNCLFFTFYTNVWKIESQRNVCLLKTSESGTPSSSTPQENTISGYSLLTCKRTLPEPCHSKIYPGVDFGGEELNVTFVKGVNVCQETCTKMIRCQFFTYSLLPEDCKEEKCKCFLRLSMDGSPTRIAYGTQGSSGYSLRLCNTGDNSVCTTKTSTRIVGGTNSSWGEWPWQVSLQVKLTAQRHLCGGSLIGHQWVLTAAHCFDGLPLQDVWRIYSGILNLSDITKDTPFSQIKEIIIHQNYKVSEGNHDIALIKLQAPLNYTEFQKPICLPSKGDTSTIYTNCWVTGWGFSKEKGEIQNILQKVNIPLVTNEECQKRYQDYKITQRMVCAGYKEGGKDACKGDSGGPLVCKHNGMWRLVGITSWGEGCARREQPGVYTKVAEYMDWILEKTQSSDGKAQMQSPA

T1 sequence (P06870 25-262): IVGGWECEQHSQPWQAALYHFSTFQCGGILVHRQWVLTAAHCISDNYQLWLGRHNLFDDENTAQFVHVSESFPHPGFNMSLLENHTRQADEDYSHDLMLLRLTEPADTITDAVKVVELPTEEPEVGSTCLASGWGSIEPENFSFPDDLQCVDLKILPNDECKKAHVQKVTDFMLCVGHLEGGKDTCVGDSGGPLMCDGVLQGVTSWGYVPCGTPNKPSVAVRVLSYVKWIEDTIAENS
Chain of plasmin (P00747 581-810 limits assumed): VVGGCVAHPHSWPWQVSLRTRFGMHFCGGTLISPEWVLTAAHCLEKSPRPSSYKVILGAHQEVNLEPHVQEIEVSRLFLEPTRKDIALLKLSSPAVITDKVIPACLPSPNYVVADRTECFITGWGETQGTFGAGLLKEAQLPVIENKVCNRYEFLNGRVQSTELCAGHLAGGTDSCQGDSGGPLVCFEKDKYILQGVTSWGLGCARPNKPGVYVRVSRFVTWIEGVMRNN
Chain of plasmin (P00747 97-580 partner limits assumed): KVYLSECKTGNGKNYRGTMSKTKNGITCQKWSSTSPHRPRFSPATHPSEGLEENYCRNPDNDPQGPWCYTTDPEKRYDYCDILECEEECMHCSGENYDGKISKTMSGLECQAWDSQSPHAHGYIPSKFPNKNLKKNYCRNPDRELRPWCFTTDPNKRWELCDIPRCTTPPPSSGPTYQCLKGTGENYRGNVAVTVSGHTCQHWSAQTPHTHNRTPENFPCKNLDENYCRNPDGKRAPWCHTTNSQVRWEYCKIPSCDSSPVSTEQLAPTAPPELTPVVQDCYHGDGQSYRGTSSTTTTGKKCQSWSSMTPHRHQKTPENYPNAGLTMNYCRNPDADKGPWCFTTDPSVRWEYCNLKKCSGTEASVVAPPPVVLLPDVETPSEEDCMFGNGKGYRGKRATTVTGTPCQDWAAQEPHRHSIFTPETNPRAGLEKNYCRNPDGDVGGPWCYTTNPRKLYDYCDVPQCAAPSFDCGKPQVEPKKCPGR

For orientation: pIC50 means the IC50 on a negative log10 scale, so that one unit is a factor of ten. With `CN1CCC[C@@H]1C(=O)N[C@@H](Cc1ccc(Cl)c(Cl)c1)C(=O)NCc1ccc(N)nc1` [Example 90, (R)-1-Methyl-pyrrolidine-2-carboxylic acid [(S)-1-[(6-amino-pyridin-3-ylmethyl)-carbamoyl]-2-(3,4-dichloro-phenyl)-ethyl]-amide], the pIC50 is 9.07 at Human KLK1; less than 5.00 at plasmin; less than 5.00 against trypsin; less than 5.00 at thrombin; less than 5.00 on plasma kallikrein.

On to `CC(C)N(C)[C@@H](C)C(=O)N(C)[C@@H](CC1CCCCC1)C(=O)NCc1ccc(N)nc1` [Example 437, (S)—N-{(S)-1-[(6-Amino-pyridin-3-ylmethyl)-carbamoyl]-2-cyclohexyl-ethyl}-2-(isopropyl-methyl-amino)-N-methyl-propionamide], for which the pIC50 on Human KLK1 was 8.38; at plasmin it was less than 5.00; against trypsin, less than 5.00; against thrombin, less than 5.00; against plasma kallikrein it was less than 5.00.

With `CCC(C)[C@@H](N)C(=O)N[C@@H](Cc1ccccc1)C(=O)NCc1ccc(N)nc1` (stereo partly drawn) [Example 26, (R)-2-Amino-3-methyl-pentanoic acid {(S)-1-[(6-amino-pyridin-3-ylmethyl)-carbamoyl]-2-phenyl-ethyl}-amide], the pIC50 against Human KLK1 is 7.69; against plasmin, less than 5.00; at trypsin, less than 5.00; against thrombin, less than 5.00; at plasma kallikrein it was less than 5.00.

Consider `CCN1CCC[C@@H]1C(=O)N[C@@H](Cc1ccc(F)c(F)c1)C(=O)NCc1ccc(N)nc1` [Example 131, (R)-1-Ethyl-pyrrolidine-2-carboxylic acid [(S)-1-[(6-amino-pyridin-3-ylmethyl)-carbamoyl]-2-(3,4-difluoro-phenyl)-ethyl]-amide], for which the pIC50 is 9.27 at Human KLK1; less than 5.00 at plasmin; less than 5.00 on trypsin; less than 5.00 on thrombin; less than 5.00 on plasma kallikrein.

For the compound `CN[C@H](Cc1ccccc1)C(=O)N[C@@H](Cc1ccc(Cl)c(Cl)c1)C(=O)NCc1ccc(N)nc1` [Example 60, (R)—N-[(S)-1-[(6-Amino-pyridin-3-ylmethyl)-carbamoyl]-2-(3,4-dichloro-phenyl)-ethyl]-2-methylamino-3-phenyl-propionamide], the pIC50 at Human KLK1 is 9.15; at plasmin, less than 5.00; on trypsin, less than 5.00; at thrombin, less than 5.00; against plasma kallikrein, less than 5.00.

Turning to `Cc1cc(C)c(C(=O)N[C@@H](Cc2cccc(Cl)c2)C(=O)NCc2ccc(N)nc2)[nH]1` [Example 235, 3,5-Dimethyl-1H-pyrrole-2-carboxylic acid [(S)-1-[(6-amino-pyridin-3-ylmethyl)-carbamoyl]-2-(3-chloro-phenyl)-ethyl]-amide], the pIC50 against Human KLK1 is 8.62; against plasmin, less than 5.00; at trypsin, less than 5.00; against thrombin, less than 5.00; at plasma kallikrein it was less than 5.00.

Regarding `CCN(CC)[C@@H](C)C(=O)N[C@@H](CC1CCCCC1)C(=O)NCc1ccc(N)nc1` [Example 390, (S)—N-{(S)-1-[(6-Amino-pyridin-3-ylmethyl)-carbamoyl]-2-cyclohexyl-ethyl}-2-diethylamino-propionamide], the pIC50 was 8.57 against Human KLK1; less than 5.00 against plasmin; less than 5.00 against trypsin; less than 5.00 on thrombin; less than 5.00 on plasma kallikrein.

As for `CCC(C)[C@@H](N)C(=O)N[C@@H](CC1CCCCC1)C(=O)NCc1ccc(N)nc1` (stereo partly drawn) [Example 20, (R)-2-Amino-3-methyl-pentanoic acid {(S)-1-[(6-amino-pyridin-3-ylmethyl)-carbamoyl]-2-cyclohexyl-ethyl}-amide], the pIC50 is 8.37 against Human KLK1; less than 5.00 against plasmin; less than 5.00 against trypsin; less than 5.00 against thrombin; less than 5.00 at plasma kallikrein.

As to `CCC(C)[C@@H](N)C(=O)N[C@@H](CC1CCCC2CCCCC21)C(=O)NCc1ccc(N)nc1` (stereo partly drawn) [Example 2, (R)-2-Amino-3-methyl-pentanoic acid [(S)-1-[(6-amino-pyridin-3-ylmethyl)-carbamoyl]-2-(decahydro-naphthalen-1-yl)-ethyl]-amide], the pIC50 against Human KLK1 was 9.00; at plasmin it was less than 5.00; at trypsin, less than 5.00; on thrombin, less than 5.00; at plasma kallikrein it was less than 5.00.

`Nc1ccc(CNC(=O)[C@H](Cc2cccc3ccccc23)NC(=O)c2ccc[nH]2)cn1` [Example 228, 1H-Pyrrole-2-carboxylic acid {(S)-1-[(6-amino-pyridin-3-ylmethyl)-carbamoyl]-2-naphthalen-1-yl-ethyl}-amide]: the pIC50 is 7.49 against Human KLK1; less than 5.00 against plasmin; less than 5.00 on trypsin; less than 5.00 at thrombin; less than 5.00 against plasma kallikrein.

With `CN(C)[C@H](Cc1ccccc1)C(=O)N[C@@H](Cc1ccc(Cl)c(Cl)c1)C(=O)NCc1ccc(N)nc1` [Example 400, (R)—N-[(S)-1-[(6-Amino-pyridin-3-ylmethyl)-carbamoyl]-2-(3,4-dichloro-phenyl)-ethyl]-2-dimethylamino-3-phenyl-propionamide], the pIC50 at Human KLK1 was 8.77; on plasmin, less than 5.00; at trypsin it was less than 5.00; on thrombin it was less than 5.00; against plasma kallikrein, less than 5.00.

For the compound `Cc1cc(C)c(C(=O)N[C@@H](Cc2cccc3ccccc23)C(=O)NCc2ccc(N)nc2)[nH]1` [Example 231, 3,5-Dimethyl-1H-pyrrole-2-carboxylic acid {(S)-1-[(6-amino-pyridin-3-ylmethyl)-carbamoyl]-2-naphthalen-1-yl-ethyl}-amide], the pIC50 on Human KLK1 was 8.51; against plasmin, less than 5.00; against trypsin it was less than 5.00; against thrombin, less than 5.00; against plasma kallikrein it was less than 5.00.

As to `Cc1cc(C)c(C(=O)N[C@@H](Cc2cccc(C(F)(F)F)c2)C(=O)NCc2ccc(N)nc2C)[nH]1` [Example 277, 3,5-Dimethyl-1H-pyrrole-2-carboxylic acid [(S)-1-[(6-amino-2-methyl-pyridin-3-ylmethyl)-carbamoyl]-2-(3-trifluoromethyl-phenyl)-ethyl]-amide], the pIC50 on Human KLK1 was 9.05; at plasmin it was less than 5.00; against trypsin, less than 5.00; on thrombin, less than 5.00; at plasma kallikrein, less than 5.00.

Take `Nc1ccc(CNC(=O)[C@H](Cc2ccc(Cl)c(Cl)c2)NC(=O)[C@H](N)Cc2ccccc2)cn1` [Example 54, (R)-2-Amino-N-[(S)-1-[(6-amino-pyridin-3-ylmethyl)-carbamoyl]-2-(3,4-dichloro-phenyl)-ethyl]-3-phenyl-propionamide]: the pIC50 on Human KLK1 is 9.54; against plasmin it was less than 5.00; at trypsin it was less than 5.00; on thrombin, less than 5.00; at plasma kallikrein, less than 5.00.

For the compound `CCC(C)[C@H](N)C(=O)N[C@@H](C(=O)NCc1ccc(N)nc1)C(C1CCCCC1)C1CCCCC1` (stereo partly drawn) [Example 11, (S)-2-Amino-3-methyl-pentanoic acid [(R)-1-[(6-amino-pyridin-3-ylmethyl)-carbamoyl]-2,2-dicyclohexyl-ethyl]-amide], the pIC50 is 8.31 against Human KLK1; less than 5.00 against plasmin; less than 5.00 against trypsin; less than 5.00 on thrombin; less than 5.00 on plasma kallikrein.

Turning to `CC1CCCC(C)N1CC(=O)N[C@@H](Cc1ccc(F)c(F)c1)C(=O)NCc1ccc(N)nc1` (stereo partly drawn) [Example 365, (S)—N-(6-Amino-pyridin-3-ylmethyl)-3-(3,4-difluoro-phenyl)-2-[2-(2,6-dimethyl-piperidin-1-yl)-acetylamino]-propionamide], the pIC50 against Human KLK1 was 8.60; against plasmin it was less than 5.00; against trypsin, less than 5.00; on thrombin, less than 5.00; against plasma kallikrein it was less than 5.00.

Consider `CCC(C)[C@@H](N)C(=O)N[C@@H](Cc1cccc(C(F)(F)F)c1)C(=O)NCc1ccc(N)nc1` (stereo partly drawn) [Example 30, (R)-2-Amino-3-methyl-pentanoic acid [(S)-1-[(6-amino-pyridin-3-ylmethyl)-carbamoyl]-2-(3-trifluoromethyl-phenyl)-ethyl]-amide], for which the negative logarithm of the IC50 (pIC50) on Human KLK1 was 8.96; at plasmin, less than 5.00; against trypsin, less than 5.00; against thrombin, less than 5.00; on plasma kallikrein, less than 5.00.

Take `CCC(C)[C@H](C(=O)N[C@@H](Cc1ccc(Cl)c(Cl)c1)C(=O)NCc1ccc(N)nc1)N(C)C` (stereo partly drawn) [Example 398, (R)-2-Dimethylamino-3-methyl-pentanoic acid [(S)-1-[(6-amino-pyridin-3-ylmethyl)-carbamoyl]-2-(3,4-dichloro-phenyl)-ethyl]-amide]: the pIC50 on Human KLK1 is 9.09; against plasmin, less than 5.00; at trypsin, less than 5.00; at thrombin it was less than 5.00; against plasma kallikrein, less than 5.00.

As for `CN1CCC[C@@H]1C(=O)N[C@@H](Cc1ccc(F)c(F)c1)C(=O)NCc1ccc(N)nc1` [Example 5, (R)-1-Methyl-pyrrolidine-2-carboxylic acid [(S)-1-[(6-amino-pyridin-3-ylmethyl)-carbamoyl]-2-(3,4-difluoro-phenyl)-ethyl]-amide], the pIC50 on Human KLK1 was 8.89; at plasmin, less than 5.00; against trypsin it was less than 5.00; on thrombin, less than 5.00; on plasma kallikrein it was less than 5.00.
